Values quoted from earlier work as cited in US20240139108A1, “ORAL PHARMACEUTICAL COMPOSITION OF ARSENIC TRIOXIDE” (INTAS PHARMACEUTICALS LTD., priority 2021, published 2024).

How the values were obtained:
[1] = orally administered versus same amount administered intravenously

For Diarsenic trioxide, the peak plasma concentration [1] is listed as “lower peak plasma concentration”, the “prolongation of the QT interval and ventricular tachycardia” value [1] is listed as “less prolongation of the QT interval and ventricular tachycardia” and the solubility in water is listed as “low solubility in water”.
